In PubChem BioAssay (NCI):
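Dose response: 5 concentrations. Exposure: 48 h. Format: 96-well plates. Endpoint: linear interpolation; highest concentration if not reached. Abbreviation: GI50, concentration required for 50% inhibition of growth. TGI: concentration producing complete growth inhibition.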

Assays:
Assay in all cases: DTP human tumour cell line panel, 48 h
786-0 renal = system: 786-0 renal
A498 renal = system: A498 renal
A549 NSCLC = system: A549 NSCLC
ACHN renal = system: ACHN renal
BT-549 breast = system: BT-549 breast
CAKI-1 renal = system: CAKI-1 renal
CCRF-CEM leukemia = system: CCRF-CEM leukemia
COLO 205 colon = system: COLO 205 colon
DU-145 prostate = system: DU-145 prostate
EKVX NSCLC = system: EKVX NSCLC
HCC-2998 colon = system: HCC-2998 colon
HCT-116 colon = system: HCT-116 colon
HCT-15 colon = system: HCT-15 colon
HL-60(TB) leukemia = system: HL-60(TB) leukemia
HOP-62 NSCLC = system: HOP-62 NSCLC
HS 578T breast = system: HS 578T breast
HT29 colon = system: HT29 colon
IGROV1 ovarian = system: IGROV1 ovarian
K-562 leukemia = system: K-562 leukemia
KM12 colon = system: KM12 colon
LOX IMVI melanoma = system: LOX IMVI melanoma
M14 melanoma = system: M14 melanoma
MALME-3M melanoma = system: MALME-3M melanoma
MCF7 breast = system: MCF7 breast
MDA-MB-231 breast = system: MDA-MB-231 breast
MDA-MB-435 = system: MDA-MB-435
MOLT-4 leukemia = system: MOLT-4 leukemia
NCI-H226 lung = system: NCI-H226 lung
NCI-H23 lung = system: NCI-H23 lung
NCI-H460 lung = system: NCI-H460 lung
NCI-H522 lung = system: NCI-H522 lung
NCI/ADR-RES ovarian = system: NCI/ADR-RES ovarian
OVCAR-3 ovarian = system: OVCAR-3 ovarian
OVCAR-4 ovarian = system: OVCAR-4 ovarian
OVCAR-5 ovarian = system: OVCAR-5 ovarian
OVCAR-8 ovarian = system: OVCAR-8 ovarian
PC-3 prostate = system: PC-3 prostate
RPMI-8226 leukemia = system: RPMI-8226 leukemia
RXF 393 renal = system: RXF 393 renal
SF-268 CNS = system: SF-268 CNS
SF-295 CNS = system: SF-295 CNS
SF-539 CNS = system: SF-539 CNS
SK-MEL-2 melanoma = system: SK-MEL-2 melanoma
SK-MEL-28 melanoma = system: SK-MEL-28 melanoma
SK-MEL-5 melanoma = system: SK-MEL-5 melanoma
SK-OV-3 ovarian = system: SK-OV-3 ovarian
SN12C renal = system: SN12C renal
SNB-19 CNS = system: SNB-19 CNS
SNB-75 CNS = system: SNB-75 CNS
SR leukemia = system: SR leukemia
SW-620 colon = system: SW-620 colon
T-47D breast = system: T-47D breast
TK-10 renal = system: TK-10 renal
U251 CNS = system: U251 CNS
UACC-257 melanoma = system: UACC-257 melanoma
UACC-62 melanoma = system: UACC-62 melanoma
UO-31 renal = system: UO-31 renal
HOP-92 NSCLC = system: HOP-92 NSCLC

Cc1cc(N2CCOCC2)cc2[nH]c(-c3c(NC[C@@H](O)c4cccc(Cl)c4)cc[nH]c3=O)nc12
GI50 (786-0 renal): 1.21 µM
TGI (786-0 renal): 4.02 µM
GI50 (A498 renal): 0.35 µM
TGI (A498 renal): 1.15 µM
GI50 (A549 NSCLC): 0.903 µM
TGI (A549 NSCLC): 4.31 µM
GI50 (ACHN renal): 2.84 µM
TGI (ACHN renal): 80.2 µM
GI50 (BT-549 breast): 1.83 µM
TGI (BT-549 breast): 7.18 µM
GI50 (CAKI-1 renal): 1.46 µM
TGI (CAKI-1 renal): 5.72 µM
GI50 (CCRF-CEM leukemia): 4.01 µM
TGI (CCRF-CEM leukemia): > 100 µM
GI50 (COLO 205 colon): 0.118 µM
TGI (COLO 205 colon): 0.642 µM
GI50 (DU-145 prostate): 1.42 µM
TGI (DU-145 prostate): 14.7 µM
GI50 (EKVX NSCLC): 1.62 µM
TGI (EKVX NSCLC): 29.1 µM
GI50 (HCC-2998 colon): 1.57 µM
TGI (HCC-2998 colon): 6.15 µM
GI50 (HCT-116 colon): 1.64 µM
TGI (HCT-116 colon): 6.67 µM
GI50 (HCT-15 colon): 2.08 µM
TGI (HCT-15 colon): 31.5 µM
GI50 (HL-60(TB) leukemia): 0.0567 µM
TGI (HL-60(TB) leukemia): 2.45 µM
GI50 (HOP-62 NSCLC): 2.16 µM
TGI (HOP-62 NSCLC): 12.3 µM
GI50 (HS 578T breast): 1.04 µM
TGI (HS 578T breast): 4.42 µM
GI50 (HT29 colon): 0.0672 µM
TGI (HT29 colon): 1.81 µM
GI50 (IGROV1 ovarian): 0.912 µM
TGI (IGROV1 ovarian): 5.28 µM
GI50 (K-562 leukemia): 2.94 µM
TGI (K-562 leukemia): 13 µM
GI50 (KM12 colon): 0.0161 µM
TGI (KM12 colon): 4.46 µM
GI50 (LOX IMVI melanoma): 0.387 µM
TGI (LOX IMVI melanoma): 2.19 µM
GI50 (M14 melanoma): 0.925 µM
TGI (M14 melanoma): 7.66 µM
GI50 (MALME-3M melanoma): 1.68 µM
TGI (MALME-3M melanoma): 14.8 µM
GI50 (MCF7 breast): 0.233 µM
TGI (MCF7 breast): 15.8 µM
GI50 (MDA-MB-231 breast): 1.22 µM
TGI (MDA-MB-231 breast): 5.37 µM
GI50 (MDA-MB-435): 1.07 µM
TGI (MDA-MB-435): 7.9 µM
GI50 (MOLT-4 leukemia): 3.14 µM
TGI (MOLT-4 leukemia): 27.7 µM
GI50 (NCI-H226 lung): 0.361 µM
TGI (NCI-H226 lung): 5.89 µM
GI50 (NCI-H23 lung): 1.29 µM
TGI (NCI-H23 lung): 11.3 µM
GI50 (NCI-H460 lung): 0.51 µM
TGI (NCI-H460 lung): 11.2 µM
GI50 (NCI-H522 lung): 1.78 µM
TGI (NCI-H522 lung): 6.18 µM
GI50 (NCI/ADR-RES ovarian): 2.83 µM
TGI (NCI/ADR-RES ovarian): 12.3 µM
GI50 (OVCAR-3 ovarian): 5.58 µM
TGI (OVCAR-3 ovarian): 27.7 µM
GI50 (OVCAR-4 ovarian): 4.21 µM
TGI (OVCAR-4 ovarian): 40.4 µM
GI50 (OVCAR-5 ovarian): 0.673 µM
TGI (OVCAR-5 ovarian): 9.66 µM
GI50 (OVCAR-8 ovarian): 3.23 µM
TGI (OVCAR-8 ovarian): 14.7 µM
GI50 (PC-3 prostate): 3.7 µM
TGI (PC-3 prostate): > 100 µM
GI50 (RPMI-8226 leukemia): 3.22 µM
TGI (RPMI-8226 leukemia): > 100 µM
GI50 (RXF 393 renal): 0.567 µM
TGI (RXF 393 renal): 2.11 µM
GI50 (SF-268 CNS): 2.06 µM
TGI (SF-268 CNS): 7.63 µM
GI50 (SF-295 CNS): 2.72 µM
TGI (SF-295 CNS): 18.9 µM
GI50 (SF-539 CNS): 2.02 µM
TGI (SF-539 CNS): 4.85 µM
GI50 (SK-MEL-2 melanoma): 1.98 µM
TGI (SK-MEL-2 melanoma): 5.98 µM
GI50 (SK-MEL-28 melanoma): 2.15 µM
TGI (SK-MEL-28 melanoma): 13.5 µM
GI50 (SK-MEL-5 melanoma): 2.13 µM
TGI (SK-MEL-5 melanoma): 11.3 µM
GI50 (SK-OV-3 ovarian): 4.56 µM
TGI (SK-OV-3 ovarian): 25 µM
GI50 (SN12C renal): 0.798 µM
TGI (SN12C renal): 12.7 µM
GI50 (SNB-19 CNS): 3.29 µM
TGI (SNB-19 CNS): 22.8 µM
GI50 (SNB-75 CNS): 1.15 µM
TGI (SNB-75 CNS): 2.47 µM
GI50 (SR leukemia): 0.295 µM
TGI (SR leukemia): 5.06 µM
GI50 (SW-620 colon): 1.05 µM
TGI (SW-620 colon): 11.2 µM
GI50 (T-47D breast): 4.17 µM
TGI (T-47D breast): 37.8 µM
GI50 (TK-10 renal): 1.55 µM
TGI (TK-10 renal): 4.4 µM
GI50 (U251 CNS): 1.65 µM
TGI (U251 CNS): 4.38 µM
GI50 (UACC-257 melanoma): 0.385 µM
TGI (UACC-257 melanoma): 7.37 µM
GI50 (UACC-62 melanoma): 2.36 µM
TGI (UACC-62 melanoma): 12.6 µM
GI50 (UO-31 renal): 0.275 µM
TGI (UO-31 renal): 2.98 µM

C=CCc1cccc2cc(C(=O)Nc3ccccn3)c(=N)oc12
TGI (786-0 renal): > 100 µM
TGI (A498 renal): > 100 µM
TGI (A549 NSCLC): > 100 µM
TGI (ACHN renal): > 100 µM
TGI (BT-549 breast): > 100 µM
TGI (CAKI-1 renal): > 100 µM
TGI (CCRF-CEM leukemia): > 100 µM
TGI (COLO 205 colon): > 100 µM
TGI (DU-145 prostate): > 100 µM
TGI (HCC-2998 colon): > 100 µM
TGI (HCT-116 colon): > 100 µM
TGI (HCT-15 colon): > 100 µM
TGI (HL-60(TB) leukemia): > 100 µM
TGI (HOP-62 NSCLC): > 100 µM
TGI (HOP-92 NSCLC): > 100 µM
TGI (HS 578T breast): > 100 µM
TGI (HT29 colon): > 100 µM
TGI (IGROV1 ovarian): > 100 µM
TGI (K-562 leukemia): > 100 µM
TGI (KM12 colon): > 100 µM
TGI (LOX IMVI melanoma): > 100 µM
TGI (M14 melanoma): > 100 µM
TGI (MCF7 breast): > 100 µM
TGI (MDA-MB-231 breast): > 100 µM
TGI (MDA-MB-435): > 100 µM
TGI (MOLT-4 leukemia): > 100 µM
TGI (NCI-H226 lung): > 100 µM
TGI (NCI-H23 lung): > 100 µM
TGI (NCI-H460 lung): > 100 µM
TGI (NCI/ADR-RES ovarian): > 100 µM
TGI (OVCAR-3 ovarian): > 100 µM
TGI (OVCAR-4 ovarian): > 100 µM
TGI (OVCAR-5 ovarian): > 100 µM
TGI (OVCAR-8 ovarian): > 100 µM
TGI (PC-3 prostate): > 100 µM
TGI (RPMI-8226 leukemia): > 100 µM
TGI (RXF 393 renal): > 100 µM
TGI (SF-268 CNS): > 100 µM
TGI (SF-539 CNS): > 100 µM
TGI (SK-MEL-2 melanoma): > 100 µM
TGI (SK-MEL-28 melanoma): > 100 µM
TGI (SK-MEL-5 melanoma): > 100 µM
TGI (SK-OV-3 ovarian): > 100 µM
TGI (SN12C renal): > 100 µM
TGI (SNB-19 CNS): > 100 µM
TGI (SNB-75 CNS): > 100 µM
TGI (SR leukemia): > 100 µM
TGI (SW-620 colon): > 100 µM
TGI (T-47D breast): > 100 µM
TGI (U251 CNS): > 100 µM
TGI (UACC-257 melanoma): > 100 µM
TGI (UACC-62 melanoma): > 100 µM
